{
  "source": "ChEMBL document CHEMBL3351373",
  "about": "“Five-membered heteroaromatic ring fused-pyrimidine derivatives: design, synthesis, and hedgehog signaling pathway inhibition study” (Bioorg Med Chem Lett, 2014)",
  "note": "pIC50: −log10 of the molar value.",
  "data": [
    {"test": "Inhibition of hedgehog receptor signaling pathway in mouse NIH3T3 cells transfected with Gli-reporter gene by luciferase reporter gene assay", "type": "cell-based", "values": [
      {"smiles": "Cc1ccc(CN2CCOCC2)cc1NC(=O)c1ccc(Nc2nc(-c3ccc(OC(F)(F)F)cc3)c3ncn(C)c3n2)cc1", "pIC50": 9.46},
      {"smiles": "Cc1ccc(OCCN2CCOCC2)cc1NC(=O)c1ccc(Nc2nc(-c3ccc(OC(F)(F)F)cc3)c3nc[nH]c3n2)cc1", "pIC50": 8.53},
      {"smiles": "Cc1ccc(CN2CCOCC2)cc1NC(=O)c1ccc(Nc2nc(-c3ccc(OC(F)(F)F)cc3)c3ccsc3n2)cc1", "pIC50": 8.76},
      {"smiles": "Cc1ccc(CN2CCN(C)CC2)cc1NC(=O)c1ccc(Nc2nc(-c3ccc(OC(F)(F)F)cc3)c3sccc3n2)cc1", "pIC50": 8.03},
      {"smiles": "Cc1cccc(C)c1NC(=O)c1ccc(Nc2nc(-c3ccc(OC(F)(F)F)cc3)c3nc[nH]c3n2)cc1", "pIC50": 6.29},
      {"smiles": "FC(F)(F)Oc1ccc(-c2nc(Nc3ccc4[nH]ncc4c3)nc3[nH]cnc23)cc1", "pIC50": 6.40},
      {"smiles": "Cc1cccc(C)c1NC(=O)c1ccc(Nc2nc(-c3ccc(OC(F)(F)F)cc3)c3sccc3n2)cc1", "pIC50": 8.44},
      {"smiles": "Cc1ccc(CN2CCOCC2)cc1NC(=O)c1ccc(Nc2nc(-c3ccc(OC(F)(F)F)cc3)c3occc3n2)cc1", "pIC50": 8.95},
      {"smiles": "CS(=O)(=O)c1ccc(C(=O)Nc2ccc(Cl)c(-c3ccccn3)c2)c(Cl)c1", "note": "[VISMODEGIB]", "pIC50": 8.14},
      {"smiles": "Cc1cccc(C)c1NC(=O)c1ccc(Nc2nc(-c3ccc(OC(F)(F)F)cc3)c3ccsc3n2)cc1", "pIC50": 9.22},
      {"smiles": "O=C1Cc2cc(Nc3nc(-c4ccc(OC(F)(F)F)cc4)c4nc[nH]c4n3)ccc2N1", "pIC50": "< 6.00"},
      {"smiles": "Cc1cccc(C)c1NC(=O)c1ccc(Nc2nc(-c3ccc(OC(F)(F)F)cc3)c3c(ccn3C)n2)cc1", "pIC50": 8.93},
      {"smiles": "Cc1ccc(CN2CCOCC2)cc1NC(=O)c1ccc(Nc2nc(-c3ccc(OC(F)(F)F)cc3)c3nc[nH]c3n2)cc1", "pIC50": 9.16},
      {"smiles": "Cc1cccc(C)c1NC(=O)c1ccc(Nc2nc(-c3ccc(OC(F)(F)F)cc3)c3cc[nH]c3n2)cc1", "pIC50": 8.16},
      {"smiles": "Cc1ccc(CN2CCOCC2)cc1NC(=O)c1ccc(Nc2nc(-c3ccc(OC(F)(F)F)cc3)c3cc[nH]c3n2)cc1", "pIC50": 8.22},
      {"smiles": "Cc1cccc(C)c1NC(=O)c1ccc(Nc2nc(-c3ccc(OC(F)(F)F)cc3)c3occc3n2)cc1", "pIC50": 8.75},
      {"smiles": "Cc1cccc(C)c1NC(=O)c1ccc(Nc2nc(-c3ccc(OC(F)(F)F)cc3)c3ncn(C)c3n2)cc1", "pIC50": 6.94},
      {"smiles": "Cc1ccc(CN2CCN(C)CC2)cc1NC(=O)c1ccc(Nc2nc(-c3ccc(OC(F)(F)F)cc3)c3c(ccn3C)n2)cc1", "pIC50": 8.29},
      {"smiles": "Cc1cccc(C)c1NC(=O)c1ccc(Nc2nc(-c3ccc(OC(F)(F)F)cc3)c3[nH]ccc3n2)cc1", "pIC50": 7.89},
      {"smiles": "Cc1ccc(CN2CCN(C)CC2)cc1NC(=O)c1ccc(Nc2nc(-c3ccc(OC(F)(F)F)cc3)c3[nH]ccc3n2)cc1", "pIC50": 8.86},
      {"smiles": "Cc1cccc(C)c1NC(=O)c1ccc(Nc2nc(-c3ccc(OC(F)(F)F)cc3)c3ccn(C)c3n2)cc1", "pIC50": 8.59},
      {"smiles": "Cc1ccc(CN2CCN(C)CC2)cc1NC(=O)c1ccc(Nc2nc(-c3ccc(OC(F)(F)F)cc3)c3nc[nH]c3n2)cc1", "pIC50": 9.05},
      {"smiles": "Cc1ccc(CN2CCN(C)CC2)cc1NC(=O)c1ccc(Nc2nc(-c3ccc(OC(F)(F)F)cc3)c3ccsc3n2)cc1", "pIC50": 8.47}
    ]}
  ]
}
